Measurements taken from publication PMC5685639, “A trehalose biosynthetic enzyme doubles as an osmotic stress sensor to regulate bacterial morphogenesis” (PLoS Genetics, 2017).

Biological target: T1, OtsA (Arthrobacter alpinus, UniProt C7EZF1)
T1 construct: recombinant, expressed in and purified from E. coli; self-assembles into large networks
T1 sequence (C7EZF1 1-495): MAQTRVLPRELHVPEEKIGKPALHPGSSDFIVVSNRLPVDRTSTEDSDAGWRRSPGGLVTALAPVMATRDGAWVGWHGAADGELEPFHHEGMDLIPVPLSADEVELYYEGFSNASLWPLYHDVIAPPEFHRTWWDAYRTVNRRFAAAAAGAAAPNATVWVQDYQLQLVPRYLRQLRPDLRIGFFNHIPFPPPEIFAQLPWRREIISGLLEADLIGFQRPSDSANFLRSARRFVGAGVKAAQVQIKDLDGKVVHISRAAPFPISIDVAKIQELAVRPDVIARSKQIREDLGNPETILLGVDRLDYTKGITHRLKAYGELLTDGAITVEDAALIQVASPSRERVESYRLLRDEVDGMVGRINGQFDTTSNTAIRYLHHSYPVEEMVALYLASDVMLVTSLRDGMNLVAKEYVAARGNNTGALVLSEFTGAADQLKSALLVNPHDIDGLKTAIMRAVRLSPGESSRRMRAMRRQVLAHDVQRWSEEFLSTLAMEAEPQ
Assay: dynamic light scattering, self-assembly promoted by T6P
Format: binding
Conditions: 10 uM OtsA, 20 mM Tris HCl pH 7.5, 1 mM MgCl2, 1 M urea, 20 °C; up to 500 uM T6P; T6P is also the enzyme product

O=P(O)(O)OC[C@H]1O[C@H](O[C@H]2O[C@H](CO)[C@@H](O)[C@H](O)[C@H]2O)[C@H](O)[C@@H](O)[C@@H]1O [T6P, trehalose-6-phosphate]
dynamic light scattering, self-assembly promoted by T6P: increasing concentrations of this metabolite had a dramatic effect on promoting the rate of OtsA polymerization
